We go through 21 substances from US8557763B2, “Synthetic peptides that enhance tight junction permeability” (Alba Therapeutics Corporation, priority 2007, dated 2013).

Where no end group is shown, it is not given here. [ ]: non-standard residue; d: D form. AllylGly = C=CC[C@H](N)C(=O)O

Test [1] concerns CaCo2 monolayers. The experiment in a line: Lucifer Yellow (LY) permeability assay through CaCo2 monolayers. The class given is cell-based. Set-up: key to Enhanced LY permeability: + indicates an enhancement of the permeability of the tight junctions were observed; − indicates no enhancement of permeability was observed. The note with it: CaCo2 monolayers, Lucifer Yellow flux. An excerpt:
(§1) Agonists of tight junctions can be identified by their ability to enhance the flux of compounds (e.g. ions, Lucifer Yellow) through a cell monolayer that comprises tight junctions; or by their ability to reduce TEER across a cell monolayer that comprises tight junctions. Treatment of CaCo2 monolayers with peptide FCIGRL (SEQ ID NO: 1) led to a 51-fold enhancement of Lucifer Yellow permeability through CaCo2 monolayers compared to vehicle alone.
(§2) Tight junction agonists can be identified and tested using the following method:
(§3) Determination of TEER and Lucifer Yellow Flux
(§4) Prepare Modified Hank's Balanced Salt Solution (MHBSS) by obtaining 1 L bottle of HBSS removing 10 ml of HBSS and replacing it with 10 ml HEPES buffer pH 7.0. Adjust pH to 7.4±0.1 using concentrated NaOH (10N).
(§5) Remove CaCo-2 cells from incubator, grown on 12-well, 3.0 μM, polycarbonate Transwell® filters (Corning) and record passage#, date cells seeded and age in days.
(§6) Aspirate cell culture medium from both the apical (AP) and basolateral (BL) compartments, replacing with 0.5 ml and 1.5 ml of MHBSS, respectively. Incubate cells at 37° C. for 30 minutes.
(§7) Aspirate solution from the apical compartment of each filter (n=3 per condition) and replace with 0.5 ml of control and test solutions containing Lucifer Yellow and test compound if appropriate.
(§8) Place all plates into incubator set at 37° C. (±0.2), 50 RPM (±5) for a total of 180 minutes.
At t=60, 120 and 180 minutes remove […] from each basolateral compartment and place it in a 96-well plate for Lucifer Yellow analysis, replace with 100 μl of MHBSS.
Make a Lucifer Yellow standard curve with the following dilutions (7500 μM, 3750 μM, 750 μM, 375 μM, 37.5 μM, 7.5 μM, 3.75 μM, 0.75 μM) and pipette 100 μL of each into a 96-well plate except for the first three standards mentioned above which require a 1:10 dilutions prior to transferring to the 96-well plate.
Harvest the remaining start solutions and what is left in each apical compartment into 1.5 ml vials. Freeze at −20° C. for future analysis.
Analyze each 96-well plate in a Tecan Spectra Fluor Plus using Magellan at 485 and 535 nm.
(§9) Cells: CaCo-2 cells passage 40-60 grown on Transwell® plates for 21-28 days
(§10) Culture Medium: DMEM supplemented with 10% fetal bovine serum, 1% NEAA, 1% Penn/Strep
(§11) Buffers: Hank's Balanced Salt Solution (HBSS) without calcium and magnesium
(§12) Flasks: 100×20 mm Tissue culture dish Falcon.
(§13) Plates: 12 well polycarbonate Transwell® filters; 0.3 uM pore size
(Passage across Caco-2 layers is used to estimate intestinal permeability.)

Test [2] concerns CaCo2 monolayers. The experiment in a line: Trans Epithelial Electric Resistance (TEER) across CaCo2 monolayers. The class given is cell-based. Further details: key to Reduced TEER: + indicates an enhancement of the permeability of the tight junctions were observed; − indicates no enhancement of permeability was observed. The note with it: CaCo2 monolayers.
Source text: as §1
Treatment of CaCo2 monolayers with peptide FCIGRL led to a 16-fold decrease in TEER across CaCo2 monolayers compared to vehicle alone.
as §2, §3, §4, §5, §6
Using the MilliCell®-ERS instrument (Millipore), measure and record the transepithelial electrical resistance (TEER) across each filter and record.
as §7, §8
At t=30, 60, 120 and 180 minutes, measure and record the transepithelial electrical resistance (TEER) across each filter using the MilliCell-ERS instrument.
as §9, §10, §11, §12, §13

Consider “30 (F[AllylGly]AGRL-NH2; N-terminus assumed; SMILES C=CC[C@H](NC(=O)[C@@H](N)Cc1ccccc1)C(=O)N[C@@H](C)C(=O)NCC(=O)N[C@@H](CCCNC(=N)N)C(=O)N[C@@H](CC(C)C)C(N)=O) [compound 30]”, for which, in test [1], the “Enhanced LY permeability” value is listed as “+”. The “Reduced TEER” value in test [2] is on record as “+”.

Take “31 (F[AllylGly]HGRL-NH2; N-terminus assumed; SMILES C=CC[C@H](NC(=O)[C@@H](N)Cc1ccccc1)C(=O)N[C@@H](Cc1c[nH]cn1)C(=O)NCC(=O)N[C@@H](CCCNC(=N)N)C(=O)N[C@@H](CC(C)C)C(N)=O) [compound 31]”: in test [1], the “Enhanced LY permeability” value is recorded as “+”. Further, the “Reduced TEER” value in test [2] is given as “+”.

Take “32 (F[AllylGly]DGRL-NH2; N-terminus assumed; SMILES C=CC[C@H](NC(=O)[C@@H](N)Cc1ccccc1)C(=O)N[C@@H](CC(=O)O)C(=O)NCC(=O)N[C@@H](CCCNC(=N)N)C(=O)N[C@@H](CC(C)C)C(N)=O) [compound 32]”: in test [1], the “Enhanced LY permeability” value is recorded as “+”. Besides, the “Reduced TEER” value in test [2] is “+”.

As for “33 (F[AllylGly]EGRL-NH2; N-terminus assumed; SMILES C=CC[C@H](NC(=O)[C@@H](N)Cc1ccccc1)C(=O)N[C@@H](CCC(=O)O)C(=O)NCC(=O)N[C@@H](CCCNC(=N)N)C(=O)N[C@@H](CC(C)C)C(N)=O) [compound 33]”, in test [1], the “Enhanced LY permeability” value was “+”. In addition, the “Reduced TEER” value in test [2] is listed as “+”.

As for “34 (F[AllylGly]QGRL-NH2; N-terminus assumed; SMILES C=CC[C@H](NC(=O)[C@@H](N)Cc1ccccc1)C(=O)N[C@@H](CCC(N)=O)C(=O)NCC(=O)N[C@@H](CCCNC(=N)N)C(=O)N[C@@H](CC(C)C)C(N)=O) [compound 34]”, in test [1], the “Enhanced LY permeability” value is reported as “+”. Besides, the “Reduced TEER” value in test [2] was “+”.

For “35 (F[AllylGly]RGRL-NH2; N-terminus assumed; SMILES C=CC[C@H](NC(=O)[C@@H](N)Cc1ccccc1)C(=O)N[C@@H](CCCNC(=N)N)C(=O)NCC(=O)N[C@@H](CCCNC(=N)N)C(=O)N[C@@H](CC(C)C)C(N)=O) [compound 35]”, the “Enhanced LY permeability” value in test [1] is reported as “+”. Further, the “Reduced TEER” value in test [2] is on record as “+”.

As for “36 (F[AllylGly]KGRL-NH2; N-terminus assumed; SMILES C=CC[C@H](NC(=O)[C@@H](N)Cc1ccccc1)C(=O)N[C@@H](CCCCN)C(=O)NCC(=O)N[C@@H](CCCNC(=N)N)C(=O)N[C@@H](CC(C)C)C(N)=O) [compound 36]”, the “Enhanced LY permeability” value in test [1] is recorded as “+”. Moreover, the “Reduced TEER” value in test [2] is “+”.

As for “37 (F[AllylGly]NGRL-NH2; N-terminus assumed; SMILES C=CC[C@H](NC(=O)[C@@H](N)Cc1ccccc1)C(=O)N[C@@H](CC(N)=O)C(=O)NCC(=O)N[C@@H](CCCNC(=N)N)C(=O)N[C@@H](CC(C)C)C(N)=O) [compound 37]”, the “Enhanced LY permeability” value in test [1] is “+”. The “Reduced TEER” value in test [2] is recorded as “+”.

Consider “38 (F[AllylGly]YGRL-NH2; N-terminus assumed; SMILES C=CC[C@H](NC(=O)[C@@H](N)Cc1ccccc1)C(=O)N[C@@H](Cc1ccc(O)cc1)C(=O)NCC(=O)N[C@@H](CCCNC(=N)N)C(=O)N[C@@H](CC(C)C)C(N)=O) [compound 38]”, for which the “Enhanced LY permeability” value in test [1] was “+”. Moreover, the “Reduced TEER” value in test [2] was “+”.

Take “39 (F[AllylGly]ITRL-NH2; N-terminus assumed; SMILES C=CC[C@H](NC(=O)[C@@H](N)Cc1ccccc1)C(=O)N[C@H](C(=O)N[C@H](C(=O)N[C@@H](CCCNC(=N)N)C(=O)N[C@@H](CC(C)C)C(N)=O)[C@@H](C)O)[C@@H](C)CC) [compound 39]”: in test [1], the “Enhanced LY permeability” value is recorded as “+”. In addition, the “Reduced TEER” value in test [2] is reported as “+”.

“42 (F[AllylGly]IARL-NH2; N-terminus assumed; SMILES C=CC[C@H](NC(=O)[C@@H](N)Cc1ccccc1)C(=O)N[C@H](C(=O)N[C@@H](C)C(=O)N[C@@H](CCCNC(=N)N)C(=O)N[C@@H](CC(C)C)C(N)=O)[C@@H](C)CC) [compound 42]”: the “Enhanced LY permeability” value in test [1] is recorded as “+”. In addition, in test [2], the “Reduced TEER” value is recorded as “+”.

With “43 (F[AllylGly]IPRL-NH2; N-terminus assumed; SMILES C=CC[C@H](NC(=O)[C@@H](N)Cc1ccccc1)C(=O)N[C@H](C(=O)N1CCC[C@H]1C(=O)N[C@@H](CCCNC(=N)N)C(=O)N[C@@H](CC(C)C)C(N)=O)[C@@H](C)CC) [compound 43]”, the “Enhanced LY permeability” value in test [1] is listed as “−”. The “Reduced TEER” value in test [2] was “−”.

On to “45 (F[AllylGly]IHRL-NH2; N-terminus assumed; SMILES C=CC[C@H](NC(=O)[C@@H](N)Cc1ccccc1)C(=O)N[C@H](C(=O)N[C@@H](Cc1c[nH]cn1)C(=O)N[C@@H](CCCNC(=N)N)C(=O)N[C@@H](CC(C)C)C(N)=O)[C@@H](C)CC) [compound 45]”, for which, in test [1], the “Enhanced LY permeability” value is “+”. Besides, in test [2], the “Reduced TEER” value is reported as “+”.

In the case of “46 (F[AllylGly]IDRL-NH2; N-terminus assumed; SMILES C=CC[C@H](NC(=O)[C@@H](N)Cc1ccccc1)C(=O)N[C@H](C(=O)N[C@@H](CC(=O)O)C(=O)N[C@@H](CCCNC(=N)N)C(=O)N[C@@H](CC(C)C)C(N)=O)[C@@H](C)CC) [compound 46]”, in test [1], the “Enhanced LY permeability” value is listed as “+”. In test [2], the “Reduced TEER” value is given as “+”.

As for “47 (F[AllylGly]IERL-NH2; N-terminus assumed; SMILES C=CC[C@H](NC(=O)[C@@H](N)Cc1ccccc1)C(=O)N[C@H](C(=O)N[C@@H](CCC(=O)O)C(=O)N[C@@H](CCCNC(=N)N)C(=O)N[C@@H](CC(C)C)C(N)=O)[C@@H](C)CC) [compound 47]”, the “Enhanced LY permeability” value in test [1] is on record as “+”. The “Reduced TEER” value in test [2] was “+”.

Consider “48 (F[AllylGly]IQRL-NH2; N-terminus assumed; SMILES C=CC[C@H](NC(=O)[C@@H](N)Cc1ccccc1)C(=O)N[C@H](C(=O)N[C@@H](CCC(N)=O)C(=O)N[C@@H](CCCNC(=N)N)C(=O)N[C@@H](CC(C)C)C(N)=O)[C@@H](C)CC) [compound 48]”, for which the “Enhanced LY permeability” value in test [1] was “+”. Also, the “Reduced TEER” value in test [2] was “+”.

For “49 (F[AllylGly]IFRL-NH2; N-terminus assumed; SMILES C=CC[C@H](NC(=O)[C@@H](N)Cc1ccccc1)C(=O)N[C@H](C(=O)N[C@@H](Cc1ccccc1)C(=O)N[C@@H](CCCNC(=N)N)C(=O)N[C@@H](CC(C)C)C(N)=O)[C@@H](C)CC) [compound 49]”, in test [1], the “Enhanced LY permeability” value is recorded as “+”. The “Reduced TEER” value in test [2] is “+”.

Turning to “51 (F[AllylGly]IKRL-NH2; N-terminus assumed; SMILES C=CC[C@H](NC(=O)[C@@H](N)Cc1ccccc1)C(=O)N[C@H](C(=O)N[C@@H](CCCCN)C(=O)N[C@@H](CCCNC(=N)N)C(=O)N[C@@H](CC(C)C)C(N)=O)[C@@H](C)CC) [compound 51]”, the “Enhanced LY permeability” value in test [1] is recorded as “−”. The “Reduced TEER” value in test [2] was “−”.

Consider “52 (F[AllylGly]INRL-NH2; N-terminus assumed; SMILES C=CC[C@H](NC(=O)[C@@H](N)Cc1ccccc1)C(=O)N[C@H](C(=O)N[C@@H](CC(N)=O)C(=O)N[C@@H](CCCNC(=N)N)C(=O)N[C@@H](CC(C)C)C(N)=O)[C@@H](C)CC) [compound 52]”, for which the “Enhanced LY permeability” value in test [1] is on record as “+”. Besides, the “Reduced TEER” value in test [2] is given as “+”.

As to “53 (F[AllylGly]ISRL-NH2; N-terminus assumed; SMILES C=CC[C@H](NC(=O)[C@@H](N)Cc1ccccc1)C(=O)N[C@H](C(=O)N[C@@H](CO)C(=O)N[C@@H](CCCNC(=N)N)C(=O)N[C@@H](CC(C)C)C(N)=O)[C@@H](C)CC) [compound 53]”, the “Enhanced LY permeability” value in test [1] is recorded as “+”. In test [2], the “Reduced TEER” value is listed as “+”.

As to “54 (F[AllylGly]IVRL-NH2; N-terminus assumed; SMILES C=CC[C@H](NC(=O)[C@@H](N)Cc1ccccc1)C(=O)N[C@H](C(=O)N[C@H](C(=O)N[C@@H](CCCNC(=N)N)C(=O)N[C@@H](CC(C)C)C(N)=O)C(C)C)[C@@H](C)CC) [compound 54]”, the “Enhanced LY permeability” value in test [1] is reported as “−”. The “Reduced TEER” value in test [2] is on record as “+”.
